In brackets after ≈: the same amount, converted by molar mass.
Tests used:
Assay type in all cases: cell-based
[1] = test system: KM20L2; experiment: Human cancer cell line minipanel: colon KM20L2; settings: KM-20L2
[2] = test system: BXPC-3; experiment: Human cancer cell line minipanel: pancreas BXPC-3
[3] = test system: SF-268; experiment: Human cancer cell line minipanel: CNS SF-268
[4] = test system: NCI-H460; experiment: Human cancer cell line minipanel: lung NCI-H460
[5] = test system: MCF-7; experiment: Human cancer cell line minipanel: breast MCF-7; settings: MCF7
[6] = test system: DU-145; experiment: Human cancer cell line minipanel: prostate DU-145
[7] = test system: P388 lymphocytic leukemia cell line; experiment: Murine P388 lymphocytic leukemia cell line growth inhibition
[8] = test system: panel of murine and human cancer cell lines; experiment: Cancer cell growth inhibition, summary over the panel

Row | SMILES | GI50 [1] [ng/mL] | GI50 [2] [µg/mL] | GI50 [3] [ng/mL] | GI50 [4] [ng/mL] | GI50 [5] [ng/mL] | GI50 [6] [ng/mL] | ED50 [7] [ng/mL] | ED50 (nanomolar value in parentheses) [7] [nM] | GI50 [8] [ng/mL]
1 | CC[C@H](C)[C@@H]([C@@H](CC(=O)N1CCC[C@H]1[C@H](OC)[C@@H](C)C(=O)NCCc1ccc(OP(=O)([O-])[O-])cc1)OC)N(C)C(=O)[C@@H](NC(=O)[C@H](C(C)C)N(C)C)C(C)C.[Na+].[Na+] [3b, Sodium Auristatin TP] | 0.61 | 0.046 | 1.25 | 0.88 | 0.68 | 0.54 | < 1 | < 1.2 | –
2 | CC[C@H](C)[C@@H]([C@@H](CC(=O)N1CCC[C@H]1[C@H](OC)[C@@H](C)C(=O)NCCc1ccc(OP(=O)([O-])[O-])cc1)OC)N(C)C(=O)[C@@H](NC(=O)[C@H](C(C)C)N(C)C)C(C)C.[K+].[K+] [3c, Potassium Auristatin TP] | – | – | – | – | – | – | 7.6 | 8.7 | –
3 | CC[C@H](C)[C@@H]([C@@H](CC(=O)N1CCC[C@H]1[C@H](OC)[C@@H](C)C(=O)Nc1ccc2ccccc2n1)OC)N(C)C(=O)[C@@H](NC(=O)[C@H](C(C)C)N(C)C)C(C)C [compound 4, Dov-Val-Dil-Dap-2-aminoquinoline] | 7.7 (≈ 10.6 nM) | 0.029 (≈ 40 nM) | 29 (≈ 40 nM) | 16 (≈ 22.1 nM) | 4.6 (≈ 6.34 nM) | 23 (≈ 31.7 nM) | 31 (≈ 42.8 nM) | 42.8 | –
4 | CC[C@H](C)[C@@H]([C@@H](CC(=O)N1CCC[C@H]1[C@H](OC)[C@@H](C)C(=O)Nc1ccc2ncccc2c1)OC)N(C)C(=O)[C@@H](NC(=O)[C@H](C(C)C)N(C)C)C(C)C [compound 5, Dov-Val-Dil-Dap-6-aminoquinoline] | 0.25 (≈ 0.345 nM) | 0.00031 (≈ 0.428 nM) | 0.16 (≈ 0.221 nM) | 0.36 (≈ 0.497 nM) | 0.14 (≈ 0.193 nM) | 0.3 (≈ 0.414 nM) | 2.6 (≈ 3.59 nM) | 3.59 | 0.1 (≈ 0.138 nM)
5 | CC[C@H](C)[C@@H]([C@@H](CC(=O)N1CCC[C@H]1[C@H](OC)[C@@H](C)C(=O)NCCc1ccc(O)cc1)OC)N(C)C(=O)[C@@H](NC(=O)[C@H](C(C)C)N(C)C)C(C)C [compound 9, Dov-Val-Dil-Dap-4-hydroxyphenethylamide] | – | – | – | – | – | – | 3.6 (≈ 5.01 nM) | 5.0 | –

From paper PMC3116808 (Journal of natural products, 2011)
